The results in this text go back to US8329904B2, “Azacyclic derivatives” (Hoffmann-La Roche Inc., priority 2009, dated 2012).

The experiment concerns the target T1, human HSL (Homo sapiens, UniProt Q05469).
T1 construct: overlapping PCR to generate a full length human HSL ORF with a 3′-His6 tag; His6 (C); made in house; host or cells: High 5 insect cells (baculovirus, pFast-BAC)
T1 sequence (Q05469 1-1076): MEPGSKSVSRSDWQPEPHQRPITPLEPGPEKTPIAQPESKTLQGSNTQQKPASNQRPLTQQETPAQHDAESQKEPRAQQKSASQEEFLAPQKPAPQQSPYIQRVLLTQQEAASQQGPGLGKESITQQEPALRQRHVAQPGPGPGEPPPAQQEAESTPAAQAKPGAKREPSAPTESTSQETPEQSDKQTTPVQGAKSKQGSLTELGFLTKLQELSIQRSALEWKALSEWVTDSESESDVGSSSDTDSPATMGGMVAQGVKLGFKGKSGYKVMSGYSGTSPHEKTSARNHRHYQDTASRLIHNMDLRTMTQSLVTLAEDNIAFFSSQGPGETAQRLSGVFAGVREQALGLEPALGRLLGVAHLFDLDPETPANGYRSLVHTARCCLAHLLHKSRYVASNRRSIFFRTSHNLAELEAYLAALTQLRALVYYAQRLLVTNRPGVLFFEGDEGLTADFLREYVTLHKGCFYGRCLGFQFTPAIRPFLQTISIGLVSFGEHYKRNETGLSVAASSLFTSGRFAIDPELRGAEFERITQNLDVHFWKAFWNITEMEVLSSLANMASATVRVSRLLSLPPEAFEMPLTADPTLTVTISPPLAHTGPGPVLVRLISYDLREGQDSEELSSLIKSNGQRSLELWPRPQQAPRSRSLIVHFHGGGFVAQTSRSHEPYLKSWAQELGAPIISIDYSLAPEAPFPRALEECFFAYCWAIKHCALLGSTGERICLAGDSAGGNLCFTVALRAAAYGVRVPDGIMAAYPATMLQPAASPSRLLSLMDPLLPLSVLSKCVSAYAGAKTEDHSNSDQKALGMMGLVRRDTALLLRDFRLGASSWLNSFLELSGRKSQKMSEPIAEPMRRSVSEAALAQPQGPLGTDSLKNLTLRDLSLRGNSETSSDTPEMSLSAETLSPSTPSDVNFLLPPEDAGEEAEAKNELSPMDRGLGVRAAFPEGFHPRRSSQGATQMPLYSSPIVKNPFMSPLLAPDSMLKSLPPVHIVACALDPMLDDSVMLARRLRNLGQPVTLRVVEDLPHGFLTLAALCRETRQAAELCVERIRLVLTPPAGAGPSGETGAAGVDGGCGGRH
The experiment in a line: Human Hormone-Sensitive Lipase (HSL) Enzyme Inhibition Assay. Particulars: colorimetric assay, 2,3-dimercapto-1-propanol tributyrate (DMPT) substrate, 37° C. for 20 minutes, absorbance at 405 nm; read-out: HSL hum IC50. The experiment is classed as biochemical. An outline of the steps:
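Colorimetric thioester hydrolysis: compounds in DMSO series mixed with DMPT (1.5 mM) in MOPS pH 7.2 with BSA, then baculovirus-expressed His6-tagged full-length human HSL added, 37° C, 20 min. DTNB plus detergents added, 15 min room temperature, absorbance at 405 nm.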
The IC50 is the concentration that gives 50% inhibition. For `O=C(N1CCC2(CC1)CCN(c1ccc(OC(F)(F)F)cc1)C2=O)N1Cc2ccccc2C1` [Example 277, 8-(1,3-Dihydro-isoindole-2-carbonyl)-2-(4-trifluoromethoxy-phenyl)-2,8-diaza-spiro[4.5]decan-1-one], the IC50 turned out to be 260 nM. With `CN(Cc1ccccc1)C(=O)N1CCC2(CC1)CCN(c1ccc(OC(F)(F)F)cc1)C2=O` [Example 278, 1-Oxo-2-(4-trifluoromethoxy-phenyl)-2,8-diaza-spiro[4.5]decane-8-carboxylic acid benzyl-methyl-amide], the IC50 was found to be 120 nM.

For `CCN(C(=O)N1CCC2(CC1)CCN(c1ccc(OC(F)(F)F)cc1)C2=O)c1ccccc1` [Example 279, 1-Oxo-2-(4-trifluoromethoxy-phenyl)-2,8-diaza-spiro[4.5]decane-8-carboxylic acid ethyl-phenyl-amide], the IC50 was 40 nM. The same measure for `CN(C(=O)N1CCC2(CC1)CCN(c1ccc(OC(F)(F)F)cc1)C2=O)c1cccc(F)c1` [Example 280, 1-Oxo-2-(4-trifluoromethoxy-phenyl)-2,8-diaza-spiro[4.5]decane-8-carboxylic acid (3-fluoro-phenyl)-methyl-amide]: 90 nM; for `O=C(N1CCC2(CC1)CCN(c1ccc(OC(F)(F)F)cc1)C2=O)N1CCCc2ccccc21` [Example 281, 8-(3,4-Dihydro-2H-quinoline-1-carbonyl)-2-(4-trifluoromethoxy-phenyl)-2,8-diaza-spiro[4.5]decan-1-one]: 110 nM; for `CN(CCc1ccccc1)C(=O)N1CCC2(CC1)CCN(c1ccc(OC(F)(F)F)cc1)C2=O` [Example 282, 1-Oxo-2-(4-trifluoromethoxy-phenyl)-2,8-diaza-spiro[4.5]decane-8-carboxylic acid methyl-phenethyl-amide]: 130 nM. For the compound `CN(CCc1ccccn1)C(=O)N1CCC2(CC1)CCN(c1ccc(OC(F)(F)F)cc1)C2=O` [Example 283, 1-Oxo-2-(4-trifluoromethoxy-phenyl)-2,8-diaza-spiro[4.5]decane-8-carboxylic acid methyl-(2-pyridin-2-yl-ethyl)-amide], the IC50 came to 140 nM.

With `CCN(CCc1ccccn1)C(=O)N1CCC2(CC1)CCN(c1ccc(OC(F)(F)F)cc1)C2=O` [Example 284, 1-Oxo-2-(4-trifluoromethoxy-phenyl)-2,8-diaza-spiro[4.5]decane-8-carboxylic acid ethyl-(2-pyridin-2-yl-ethyl)-amide], the half-maximal inhibitory concentration (IC50) stood at 150 nM. In the case of `CC(C)NS(=O)(=O)N1CCC2(CCN(c3ccc(OC(F)(F)F)cc3)C2=O)CC1` [Example 285, 1-Oxo-2-(4-trifluoromethoxy-phenyl)-2,8-diaza-spiro[4.5]decane-8-sulfonic acid isopropylamide], the IC50 is 70 nM.

As to `O=C1N(c2ccc(OC(F)(F)F)cc2)CCC12CCN(S(=O)(=O)Nc1ccccc1)CC2` [Example 286, 1-Oxo-2-(4-trifluoromethoxy-phenyl)-2,8-diaza-spiro[4.5]decane-8-sulfonic acid phenylamide], the IC50 was 60 nM. Consider `O=C1N(c2ccc(OC(F)(F)F)cc2)CCC12CCN(S(=O)(=O)NCc1ccccc1)CC2` [Example 287, 1-Oxo-2-(4-trifluoromethoxy-phenyl)-2,8-diaza-spiro[4.5]decane-8-sulfonic acid benzylamide], for which the IC50 worked out at 50 nM. Take `CC(CNS(=O)(=O)N1CCC2(CCN(c3ccc(OC(F)(F)F)cc3)C2=O)CC1)c1ccccc1` (stereo not shown) [Example 288, 1-Oxo-2-(4-trifluoromethoxy-phenyl)-2,8-diaza-spiro[4.5]decane-8-sulfonic acid (2-phenyl-propyl)-amide]: the IC50 was 150 nM.

In the case of `COCCNS(=O)(=O)N1CCC2(CCN(c3ccc(OC(F)(F)F)cc3)C2=O)CC1` [Example 289, 1-Oxo-2-(4-trifluoromethoxy-phenyl)-2,8-diaza-spiro[4.5]decane-8-sulfonic acid (2-methoxy-ethyl)-amide], the IC50 was 230 nM.
